Results published in US11865158B2, “Process and composition matter of nanoparticle formulation for systemic treatment of sepsis” (PURDUE RESEARCH FOUNDATION, priority 2019, dated 2024).

Tests used:
Assay type in all cases: cell-based
[1] = test system: Klebsiella pneumoniae NR-41920; assay: Effect on bacterial membrane (SEM); conditions: 5×MIC for 1.5 h
Experimental: Effect on bacterial membrane. […] The bacteria were collected by centrifugation at 5000 rcf for 10 min, fixed in 2.5% glutaraldehyde solution at 4° C., and placed on poly-1-lysine coated coverslip. After 1 h, the coverslip was rinsed three times with water (5 min each) and incubated in 2% Osmium tetroxide for 30 min. SEM imaging was performed as described in previous section.

[2] = test system: Pseudomonas aeruginosa NR-50573; assay: Minimum inhibitory concentration, broth microdilution
Source text: (§1) Bacterial cell lines and reagents. Escherichia coli ATCC 2452 (NDM-1, isolated in Pakistan) was New Delhi metallo-beta-lactamase (NDM-1) positive, blaNDM positive by PCR, and carbepenem-resistant (Imipenem and Ertapenem). Escherichia coli ATCC 2469 (1001728, isolated from human urine) was New Delhi metallo-beta-lactamase (NDM-1) positive, blaKPC negative and blaNDM positive by PCR, and Carbepenem-resistant (Imipenem and Ertapenem). Klebsiella pneumoniae (NR-41920, isolated in 2008 from human blood culture in Boston, Massachusetts, USA) was Carbapenem-resistant strain, blaKPC-3 positive by PCR, and resistant to amikacin, ampicillin/sulbactam, cefazolin, cefepime, ceftazidime, ceftriaxone, cefuroxime, ciprofloxacin, gentamicin, meropenem, piperacillin/tazobactam, tobramicin and trimethoprim/sulfamethoxazole. Pseudomonas aeruginosa (NR-50573, isolated in early 1970s from the blood of a burn patient at Mercy Hospital in Pittsburgh, Pennsylvania, USA) was resistant to rifampicin and susceptible to meropenem, ofloxacin, ceftazidime, amikacin, and tobramycin. 0.5 McFarland standard was purchased from ThermoFisher scientific (Waltham, MA, USA). Mueller-Hinton broth and tryptone soy agar plates were purchased from Becton, Dickinson and company (Franklin Lakes, New Jersey, USA).
(§2) Antimicrobial activities The minimum inhibitory concentrations (MICs) of the control antibiotics (gentamicin and imipenem), PMB, D-TZP and TZP against Escherichia coli, Klebsiella pneumoniae and Pseudomonas aeruginosa strains were determined by the broth microdilution method, according to guidelines outlined by the Clinical and Laboratory Standards Institute (CLSI)^18. The bacterial stains were grown aerobically overnight on tryptone soy agar plates at 37° C. Afterwards, a bacterial solution equivalent to 0.5 McFarland standard was prepared and diluted in cation-adjusted Mueller-Hinton broth (CAMHB) to achieve a bacterial concentration of ˜5×10^5 CFU/mL. The treatments were added in the first row of the 96-well plates and serially diluted with media containing bacteria. Plates were incubated aerobically at 37° C. for 16-18 hours.

[3] = test system: Klebsiella pneumoniae NR-41920; assay: as above
Source text: as §1, §2

[4] = test system: Escherichia coli ATCC 2469; assay: as above
Source text: as §1, §2

[5] = test system: Escherichia coli ATCC 2452; assay: as above
Source text: as §1, §2

polymyxin B [PMB]
bacterial membrane morphology by SEM [1]: induced deformation of bacterial membrane
Minimum inhibitory concentration (MIC) [2]: 0.5 µg/mL
Minimum inhibitory concentration (MIC) [3]: 0.5 µg/mL
Minimum inhibitory concentration (MIC) [4]: 0.125 µg/mL
Minimum inhibitory concentration (MIC) [5]: 0.5 µg/mL
